Source: patent US20100316991A1, “HUMAN PARAINFLUENZA VIRUS TYPE 3 EXPRESSING THE ENHANCED GREEN FLUORESCENT PROTEIN FOR USE IN HIGH-THROUGHPUT ANTIVIRAL ASSAYS” (priority 2009, published 2010)
In brackets after ≈: the same amount, converted by molar mass.

Columns and labels:
rHPIV3-EGFP [1] = assay: 3-Day EGFP fluorescent antiviral assay; format: cell-based, human parainfluenza type 3 virus; details: for EC50: MA104, 72 h
Protocol: (§1) Six 96-well plates were seeded with MA-104 cells to evaluate the NR and EGFP assays in parallel. A format was used allowing seven compounds to be tested per plate. Each compound was plated using four 10-fold dilutions in triplicate and starting the concentration at 1000 μg/mL for ribavirin (positive control), and ribamidine; 100 μg/mL for 2-thio-6-azauridine, 3-deazaguanosine, 1-(4-methoxybenzyloxy) adenosine, selenazofurin, and EICAR; 100 μM for CS-978, CS-1164, CS-1196, CS-1227, PSI-0194, PSI-5067, PSI-5095, PSI-5098, PSI-5452, PSI-5449, PSI-5741, PSI-5746, PSI-5747, PSI-5852, and PSI-5990; and 1 μg/mL for DAS181. Compounds that were reconstituted in DMSO were diluted down to working concentrations of 0.5% DMSO and less to eliminate cell toxicity due to the DMSO. Two of the replicates were infected with 3.9×10^3 PFU of rHPIV3-EGFP, at an MOI=0.1, while the remaining replicate served as a toxicity control with no virus added. Three of the plates were incubated at 37° C. for 3 days, after which, the toxicity and cell control cells were stained with NR following the same procedure described earlier. NR fluorescence was measured with the FMax® fluorometer, using the 544 nm excitation and 612 nm emission filters. The untreated virus control and treated, infected cells were washed with PBS, fresh PBS was added, and the fluorescence was measured with the FMax® fluorometer, using the 485 nm excitation and 538 nm emission filters. The other three plates were assayed using the traditional colorimetric NR assay. After incubation for 7 days at 37° C., the cells were stained with NR following the same procedure described earlier. For the NR assay, EC50 and 50% cell inhibitory concentrations (IC50) were calculated by linear regression from percents of untreated, uninfected cell and untreated, infected virus controls. For the EGFP assay, EC50 values were calculated by linear regression using percents of untreated, infected virus controls and IC50 values were also calculated by linear regression using percents of untreated, uninfected cell control. The EC50 and IC50 values for each compound for both assays were compared and statistically analyzed by unpaired, two-tailed Student's t-test. A selectivity index (SI) was calculated for each compound for each assay using the formula: SI=Mean IC50/Mean EC50. Compounds were sorted into positive, SI≧10, and negative, SI<10, categories for the combination of NR and EGFP assays. Using the NR assay as the gold standard, sensitivity, true positives/(true positives+false negatives), and specificity, true negatives/(true negatives+false positives), were calculated.

MA-104 cells [2] = assay: 3-Day EGFP assay, toxicity control (no virus, NR fluorescence); format: cell-based, African green monkey; details: Chlorocebus sabaeus, MA104, 72 h, 3-Day EGFP fluorescent assay, uninfected MA-104 cells, read-out: IC50 (50% cell inhibitory concentration)
Protocol: as §1

rHPIV3-EGFP [3] = assay: 7-Day colorimetric neutral red uptake antiviral assay; format: cell-based, human parainfluenza type 3 virus; details: for SI: 7-Day colorimetric neutral red uptake assay, SI = Mean IC50/Mean EC50; for EC50: Homo sapiens, MA104, 168 h
Protocol: (§2) Ninety-six-well plates were seeded with MA-104 cells and infected with 3.9×10^3 PFU of either the HPIV-3 WT or rHPIV3-EGFP virus in duplicate at an MOI=0.1 in quadruplicate wells. The plates were incubated at 37° C. and on each day, including the day of infection, the cells were stained with 0.034% neutral red for 2 hours at 37° C., washed once with PBS, and the NR extracted with ethanol:Sörenson's citrate buffer for 30 min while rocking at room temperature. Absorbance, at 540 and 405 nm wavelengths, was read with an Opsys MR™ spectrophotometer and Revelation Quicklink software, version 4.24 (both from Dynex Technologies, Chantilly, Va.). The two curves was compared and statistically analyzed by ANOVA.
as §1

MA-104 cells [4] = assay: 7-Day colorimetric neutral red uptake assay, toxicity control (no virus); format: cell-based, African green monkey; details: Chlorocebus sabaeus, MA104, 168 h, uninfected MA-104 cells, mean of three assays ± SD, read-out: IC50 (50% cell inhibitory concentration)
Protocol: as §2, §1

HPIV-3 WT = assay: Antiviral sensitivity CPE assay (neutral red), HPIV-3 WT; format: cell-based, human parainfluenza type 3 virus; details: Human respirovirus 3, MA104, 168 h, MA-104 cells, MOI=0.1, 7 days, NR, mean ± SD of three replicates
Protocol: as §2
(§3) An antiviral CPE assay was used to evaluate the antiviral sensitivity profiles of the HPIV-3 WT and rHPIV3-EGFP viruses. Briefly, three compounds: ribavirin (positive control), 2-thio-6-azauridine, and DAS181, were plated in four 10-fold dilutions in five replicates on 96-well plates seeded with MA-104 cells using starting concentrations of 1000, 100, and 1 μg/mL, respectively. […] Fifty percent effective concentrations (EC50) were calculated by linear regression using percents of untreated, uninfected cell and untreated, infected virus controls. EC50 values were compared and statistically analyzed by the unpaired, two-tailed Student's t-test.

rHPIV3-EGFP [5] = assay: Antiviral sensitivity CPE assay (neutral red), rHPIV3-EGFP; format: cell-based, human parainfluenza type 3 virus; details: MA104, 168 h
Protocol: as §2, §3

Compound | EC50 (rHPIV3-EGFP [1]) [µg/mL] | SI (rHPIV3-EGFP [1]) | IC50 (MA-104 cells [2]) [µg/mL] | SI (rHPIV3-EGFP [3]) | EC50 (rHPIV3-EGFP [3]) [µg/mL] | IC50 (MA-104 cells [4]) [µg/mL] | EC50 (HPIV-3 WT) [µg/mL] | EC50 (rHPIV3-EGFP [5]) [µg/mL] | activity category by SI in the EGFP assay (rHPIV3-EGFP [1])
COc1ccc(COn2cnc3c(ncn3[C@@H]3O[C@H](CO)[C@@H](O)[C@H]3O)c2=N)cc1 [1-(4-methoxybenzyloxy) adenosine] | > 41 | 0 | 41 ± 2.5 | 0 | > 31 | 31 ± 1.2 | – | – | –
O=c1cnn([C@@H]2O[C@H](CO)[C@@H](O)[C@H]2O)c(=S)[nH]1 [2-Thio-6-azauridine, 2-[(2R,3R,4S,5R)-3,4-Dihydroxy-5-(hydroxymethyl)oxolan-2-yl]-3-sulfanylidene-1,2,4-triazin-5-one] | 0.89 ± 0.13 | >110 | > 100 | 28 | 0.6 ± 0.095 | 17 ± 3.5 | 1.1 ± 0.058 (≈ 4.21 µM) | 0.63 ± 0.075 (≈ 2.41 µM) | –
Nc1cc2c(ncn2[C@@H]2O[C@H](CO)[C@@H](O)[C@H]2O)c(=O)[nH]1 [3-Deazaguanosine, 6-amino-1-[(2R,3R,4S,5R)-3,4-dihydroxy-5-(hydroxymethyl)oxolan-2-yl]-5H-imidazo[4,5-c]pyridin-4-one] | 21 | >5 | > 100 | <1 | > 31 | 34 ± 3.5 | – | – | –
C#Cc1c(C(N)=O)ncn1[C@@H]1O[C@H](CO)[C@@H](O)[C@H]1O [EICAR, 1-[(2R,3R,4S,5R)-3,4-dihydroxy-5-(hydroxymethyl)oxolan-2-yl]-5-ethynylimidazole-4-carboxamide] | 0.35 | >280 | > 100 | >120 | 0.81 ± 0.061 | > 100 | – | – | –
N=C(N)c1ncn([C@@H]2O[C@H](CO)[C@@H](O)[C@H]2O)n1 [Ribamidine, 1-[(2R,3R,4S,5R)-3,4-dihydroxy-5-(hydroxymethyl)oxolan-2-yl]-1,2,4-triazole-3-carboximidamide] | 68 ± 2.6 | >15 | > 1000 | 7 | 57 ± 15 | 390 ± 20 | – | – | moderately active (between 10 and 49 moderately active)
NC(=O)c1ncn([C@@H]2O[C@H](CO)[C@@H](O)[C@H]2O)n1 [Ribavirin, 1-[(2R,3R,4S,5R)-3,4-dihydroxy-5-(hydroxymethyl)oxolan-2-yl]-1,2,4-triazole-3-carboxamide] | 31 | >32 | > 1000 | 12 | 20 ± 3.6 | 230 ± 92 | 35 ± 2.5 (≈ 143 µM) | 19 ± 4.9 (≈ 77.8 µM) | –
NC(=O)c1c[se]c([C@@H]2O[C@H](CO)[C@@H](O)[C@H]2O)n1 [Selenazofurin, 2-[(2R,3R,4S,5R)-3,4-dihydroxy-5-(hydroxymethyl)oxolan-2-yl]-1,3-selenazole-4-carboxamide] | 3.5 ± 0.1 | >29 | > 100 | 7 | 4.9 ± 1.4 | 34 ± 7.2 | – | – | moderately active (between 10 and 49 moderately active)
